These are literature values, as cited in US20200114015A1, “Novel Alpha-Hydroxy Carboxylic Acid And Derivatives And Other GRAS- Based Prodrugs Of Gamma-Hydroxybutyrate (GHB) And Uses Thereof” (priority 2017, published 2020).

For this series the following is noted: GHB marketed as Xyrem.

For the molecule `O=C(O)CCCO` [GHB, gamma-hydroxybutyrate], the bioavailability is on record as about 25% and the half life was 30 to 60 min.

By bioavailability is commonly meant dose-corrected exposure relative to a reference, in per cent.
